Stability and solubility data for one compound are collected here from ChEMBL document CHEMBL2380257, “Discovery of a small-molecule inhibitor and cellular probe of Keap1-Nrf2 protein-protein interaction” (Bioorg Med Chem Lett, 2013).

Common to all, as to assay type: physicochemical
The nature of data set [1]: Stability in phosphate buffer after 24 hrs.
Data set [2] is described as follows: Solubility of the compound in phosphate buffer.
Data set [3] in a line: Metabolic stability of the compound assessed as thiol group addition after 48 hrs in presence of glutathione.
The nature of data set [4]: Metabolic stability of the compound assessed as thiol group decomposition after 48 hrs in presence of glutathione.

Molecules are shown by their SMILES.

For the compound `O=C(O)[C@H]1CCCC[C@H]1C(=O)N1CCc2ccccc2[C@H]1CN1C(=O)c2ccccc2C1=O`, the Stability result in data set [1], in data set [3] and in data set [4] was “Stable” in each case. Besides, in data set [2], the solubility is > 100 µM.
